One series has as its system Caco-2 cells. As to the kind of experiment: Caco-2 bidirectional permeability. It counts as in vitro ADME. To be noted: for Caco-2 A2B (10^−6 cm/s): A to B; for Caco-2 A2B (10^−6 cm/s) / Caco-2 B2A (10^−6 cm/s): HBSS pH 7.4, 2 hours; for Caco-2 B2A (10^−6 cm/s): B to A; for Caco-2 ER: Efflux Ratio=Papp (BA)/Papp (AB). Summed up: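 Caco-2 monolayers grown 21–28 days on PET inserts were run in duplicate in HBSS with 10 mM HEPES, pH 7.4. Compound was tested in both directions at […] for 2 h at 37 °C and quantified by LC-MS/MS. Papp, % recovery and efflux ratio (B-A/A-B) were calculated, with lucifer yellow checking monolayer integrity.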
(Caco-2 cells form a polarised layer with tight junctions and transporters.)

Series [1] in a line: Human hepatocyte stability, in vitro h-Hept CLpredict. Format: in vitro ADME. To be noted: cryopreserved hepatocytes, predicted hepatic clearance, cells without asterisk, read-out: hHep Cl. In outline:
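Cryopreserved human hepatocytes at 0.5×10^6 viable cells/mL in William's E medium, compound added from 100 μM solution, sampled 0–120 min in duplicate with LC/MS/MS quantitation. t1/2 from parent disappearance converted to CLint, then scaled to predicted hepatic clearance (well-stirred model, fub assumed 1) and extraction ratio.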

Turning to `CCc1n[nH]c2c1N=C(c1c(F)cccc1F)Nc1cnc(N3CCOCC3)cc1-2` [Example 31, 4-[8-(2,6-difluorophenyl)-5-ethyl-3,4,7,9,12-pentazatricyclo[8.4.0.02,6]tetradeca-1(10),2(6),4,7,11,13-hexaen-13-yl]morpholine], in the series with Caco-2 cells, the “Caco-2 A2B (10^−6 cm/s)” value is listed as “H (H (High permeability)”: A2B (B2A)>5)”, the “Caco-2 B2A (10^−6 cm/s)” value is “H (H (High permeability)”: A2B (B2A)>5)” and the “Caco-2 ER” value is reported as “N (N (Non-substrate)”: ER<2.5)”. The CLhep predicted at 1 µM in series [1] was below 6.3 mL/min/kg.

On to `Cc1n[nH]c2c1N=C(c1c(F)cccc1F)Nc1c-2cc(N2CCOCC2)nc1C` [Example 8, 4-[8-(2,6-difluorophenyl)-5,11-dimethyl-3,4,7,9,12-pentazatricyclo[8.4.0.02,6]tetradeca-1(10),2(6),4,7,11,13-hexaen-13-yl]morpholine], for which, in the series on Caco-2 cells, the “Caco-2 A2B (10^−6 cm/s)” value is recorded as “H (H (High permeability)”: A2B (B2A)>5)”, the “Caco-2 B2A (10^−6 cm/s)” value is given as “H (H (High permeability)”: A2B (B2A)>5)” and the “Caco-2 ER” value is “N (N (Non-substrate)”: ER<2.5)”. For the same compound, the CLhep predicted at 1 µM in series [1] was 6.3 to 14.7 mL/min/kg.

Take `Cc1n[nH]c2c1N=C(c1c(F)cccc1F)Nc1cnc(C#CC3(C)CCOCC3)cc1-2` [Example 17, 8-(2,6-difluorophenyl)-5-methyl-13-[2-(4-methyltetrahydropyran-4-yl)ethynyl]-3,4,7,9,12-pentazatricyclo[8.4.0.02,6]tetradeca-1(10),2(6),4,7,11,13-hexaene]: in the series with Caco-2 cells, the “Caco-2 A2B (10^−6 cm/s)” value is listed as “M (M (Moderate permeability)”: 1≤A2B (B2A)≤5)”, the “Caco-2 B2A (10^−6 cm/s)” value is recorded as “H (H (High permeability)”: A2B (B2A)>5)” and the “Caco-2 ER” value is “L (L (Likely)”: ER>2.5)”. Besides, the CLhep predicted at 1 µM in series [1] is above 14.7 mL/min/kg.

Consider `Cc1n[nH]c2c1N=C(c1c(F)cccc1F)Nc1c(F)cc(N3CCOCC3)cc1-2` [Example 30, 4-(5-(2,6-difluorophenyl)-7-fluoro-3-methyl-1,6-dihydrobenzo[d]pyrazolo[3,4-f][1,3]diazepin-9-yl)morpholine], for which, in the series on Caco-2 cells, the “Caco-2 A2B (10^−6 cm/s)” value is “H (H (High permeability)”: A2B (B2A)>5)”, the “Caco-2 B2A (10^−6 cm/s)” value is “H (H (High permeability)”: A2B (B2A)>5)” and the “Caco-2 ER” value is given as “N (N (Non-substrate)”: ER<2.5)”. For the same compound, in series [1], the CLhep predicted at 1 µM is 6.3 to 14.7 mL/min/kg.

As for `Cc1n[nH]c2c1N=C(c1c(F)cccc1F)Nc1cnc(N3CCO[C@@H](C(F)(F)F)C3)cc1-2` [Example 55, (2R)-4-[8-(2,6-difluorophenyl)-5-methyl-3,4,7,9,12-pentazatricyclo[8.4.0.02,6]tetradeca-1(10),2(6),4,7,11,13-hexaen-13-yl]-2-(trifluoromethyl)morpholine], in the series on Caco-2 cells, the “Caco-2 A2B (10^−6 cm/s)” value is given as “H (H (High permeability)”: A2B (B2A)>5)”, the “Caco-2 B2A (10^−6 cm/s)” value is on record as “H (H (High permeability)”: A2B (B2A)>5)” and the “Caco-2 ER” value is reported as “N (N (Non-substrate)”: ER<2.5)”. Also, the CLhep predicted at 1 µM in series [1] was 6.3 to 14.7 mL/min/kg.

On to `Fc1cccc(F)c1C1=Nc2c(C(F)F)n[nH]c2-c2cc(N3CCOCC3)ncc2N1` [Example 10, 4-[5-(difluoromethyl)-8-(2,6-difluorophenyl)-3,4,7,9,12-pentazatricyclo[8.4.0.02,6]tetradeca-1(10),2(6),4,7,11,13-hexaen-13-yl]morpholine], for which, in the series with Caco-2 cells, the “Caco-2 A2B (10^−6 cm/s)” value is listed as “H (H (High permeability)”: A2B (B2A)>5)”, the “Caco-2 B2A (10^−6 cm/s)” value is reported as “H (H (High permeability)”: A2B (B2A)>5)” and the “Caco-2 ER” value is reported as “N (N (Non-substrate)”: ER<2.5)”. Also, the CLhep predicted at 1 µM in series [1] is 6.3 to 14.7 mL/min/kg.

With `Cc1n[nH]c2c1N=C(c1c(F)cccc1F)Nc1ccc(N3CCOCC3)cc1-2` [Example 29, 4-(5-(2,6-difluorophenyl)-3-methyl-1,6-dihydrobenzo[d]pyrazolo[3,4-f][1,3]diazepin-9-yl)morpholine], in the series on Caco-2 cells, the “Caco-2 A2B (10^−6 cm/s)” value is listed as “H (H (High permeability)”: A2B (B2A)>5)”, the “Caco-2 B2A (10^−6 cm/s)” value is “H (H (High permeability)”: A2B (B2A)>5)” and the “Caco-2 ER” value was “N (N (Non-substrate)”: ER<2.5)”. In addition, the CLhep predicted at 1 µM in series [1] was 6.3 to 14.7 mL/min/kg.

Consider `Cc1n[nH]c2c1N=C(c1c(F)cccc1F)Nc1ccc(-c3cnn(C(F)F)c3)cc1-2` [Example 13, 9-[1-(difluoromethyl)pyrazol-4-yl]-5-(2,6-difluorophenyl)-3-methyl-1,6-dihydropyrazolo[4,3-d][1,3]benzodiazepine], for which, in the series on Caco-2 cells, the “Caco-2 A2B (10^−6 cm/s)” value was “H (H (High permeability)”: A2B (B2A)>5)”, the “Caco-2 B2A (10^−6 cm/s)” value was “H (H (High permeability)”: A2B (B2A)>5)” and the “Caco-2 ER” value is “N (N (Non-substrate)”: ER<2.5)”. Also, the CLhep predicted at 1 µM in series [1] was 6.3 to 14.7 mL/min/kg.

Consider `Cc1n[nH]c2c1N=C(c1c(F)cccc1F)Nc1cnc(-c3ccn(C(F)F)n3)cc1-2` [Example 12, 13-[1-(difluoromethyl)pyrazol-3-yl]-8-(2,6-difluorophenyl)-5-methyl-3,4,7,9,12-pentazatricyclo[8.4.0.02,6]tetradeca-1(10),2(6),4,7,11,13-hexaene], for which, in the series on Caco-2 cells, the “Caco-2 A2B (10^−6 cm/s)” value was “H (H (High permeability)”: A2B (B2A)>5)”, the “Caco-2 B2A (10^−6 cm/s)” value was “H (H (High permeability)”: A2B (B2A)>5)” and the “Caco-2 ER” value is reported as “N (N (Non-substrate)”: ER<2.5)”. Besides, the CLhep predicted at 1 µM in series [1] is below 6.3 mL/min/kg.

In the case of `Cc1n[nH]c2c1N=C(c1c(F)cccc1F)Nc1c-2cc(N2CCN(CC(C)F)CC2)nc1C` (racemic) [Example 20, 8-(2,6-difluorophenyl)-13-[4-(2-fluoropropyl)piperazin-1-yl]-5,11-dimethyl-3,4,7,9,12-pentazatricyclo[8.4.0.02,6]tetradeca-1(10),2(6),4,7,11,13-hexaene], in the series with Caco-2 cells, the “Caco-2 A2B (10^−6 cm/s)” value is listed as “H (H (High permeability)”: A2B (B2A)>5)”, the “Caco-2 B2A (10^−6 cm/s)” value is on record as “H (H (High permeability)”: A2B (B2A)>5)” and the “Caco-2 ER” value is on record as “N (N (Non-substrate)”: ER<2.5)”. Besides, the CLhep predicted at 1 µM in series [1] was below 6.3 mL/min/kg.

For `[2H]C([2H])([2H])c1n[nH]c2c1N=C(c1c(F)cccc1F)Nc1ccc(N3CCOCC3)cc1-2` [Example 33, 4-[5-(2,6-difluorophenyl)-3-(trideuteriomethyl)-1,6-dihydropyrazolo[4,3-d][1,3]benzodiazepin-9-yl]morpholine], in the series on Caco-2 cells, the “Caco-2 A2B (10^−6 cm/s)” value is recorded as “H (H (High permeability)”: A2B (B2A)>5)”, the “Caco-2 B2A (10^−6 cm/s)” value is listed as “H (H (High permeability)”: A2B (B2A)>5)” and the “Caco-2 ER” value was “N (N (Non-substrate)”: ER<2.5)”. Besides, the CLhep predicted at 1 µM in series [1] is below 6.3 mL/min/kg.

Regarding `Cc1n[nH]c2c1N=C(c1c(F)cc(F)cc1F)Nc1ccc(N3CCOCC3)cc1-2` [Example 27, 4-[3-methyl-5-(2,4,6-trifluorophenyl)-1,6-dihydropyrazolo[4,3-d][1,3]benzodiazepin-9-yl]morpholine], in the series on Caco-2 cells, the “Caco-2 A2B (10^−6 cm/s)” value is recorded as “H (H (High permeability)”: A2B (B2A)>5)”, the “Caco-2 B2A (10^−6 cm/s)” value is recorded as “H (H (High permeability)”: A2B (B2A)>5)” and the “Caco-2 ER” value was “N (N (Non-substrate)”: ER<2.5)”. The CLhep predicted at 1 µM in series [1] was 6.3 to 14.7 mL/min/kg.

The record behind these values is patent US20240208972A1, “LRRK2 INHIBITORS AND USES THEREOF” (NEURON23, INC., priority 2022, published 2024).
